# Results taken from US20110195924A1, “Methods of Inhibiting the Interaction Between S100P and the Receptor for Advanced Glycation End-Products” (priority 2008, published 2011).
# Columns and labels:
# [1] = test system: SW480 cells; test: SW480 colon cancer cell invasion (matrigel, transwell); assay type: cell-based; conditions: cromolyn 10 μM and 100 μM, 24 hours
# Procedure: SW480 cells were plated on top of a layer of matrigel in a Boyden type chamber (transwell). Media containing 5% FBS was placed in the lower well and the cells were allowed to invade the matrigel layer for 24 hours in the presence of different concentrations of cromolyn.
# [2] = test system: MPanc-96 cells; test: MPanc-96 cell apoptosis by flow cytometry, alone or with gemcitabine; assay type: cell-based, Human; conditions: alone and in conjunction with gemcitabine 10 μM; 100 and 1000 nM; 72 hours
# Procedure: FIG. 11 compares the effects of cromolyn and C5 alone and in combination with gemcitabine on MPanc-96 cell apoptosis. MPanc-96 cells were treated with cromolyn or C5 (100 and 1000 nM) with (+) or without (−) gemcitabine (10 μM). Apoptosis was analyzed after 72 hours by flow cytometry.
# [3] = test system: NFκB promoter activity; test: NFκB luciferase reporter assay in Panc-1 cells; assay type: cell-based
# Procedure: FIGS. 3A, 3B, and 3C show the effect of cromolyn on S100P stimulated NFκB promoter activity in pancreatic cancer cells in vitro and in vivo. Panc-1 and BxPC-3 pancreatic cancer cell lines stably expressing an NFκB luciferase reporter were examined for the effects of S100P and cromolyn. […] Means and 95% confidence intervals are shown for three independent experiments performed in triplicate. *, P=0.022, †, P<0.001, and P<0.001 versus control; #, P=0.005 versus 100 nM S100P alone. […] Means and 95% confidence intervals are shown for three independent experiments performed in triplicate. *, P=0.003, †, P<0.001 versus control. […] After 1 week, tumor growth was assessed and NFκB activity was analyzed using an IVIS system (Xenogen Corp., Alameda, Calif.) after injecting mice with D-luciferin (150 mg per kg body weight) (0 time point). The mice were treated with cromolyn (5 mg per kg body weight by intraperitoneal injection), and NFκB luciferase activity was analyzed again at 24 and 48 hours. *, P=0.005 versus control. Means and 95% confidence intervals are shown for two independent experiments (n=4 mice per group). Two-tailed two-sample (unpaired for in vitro and paired for in vivo studies) Student's t-tests were used to determine P values.
# To study pancreatic cancer cell NFκB activity, a lentivirus NFκB luciferase reporter gene construct was developed. The NFκB luciferase reporter gene was excised and isolated from the pNF-κB-Luc Vector (Clonetec, Mountain View, Calif.) and cloned into the lentiviral vector FG9 (Gift from Dr. Xiao-Feng Qin, Dept. of Immunology, M.D. Anderson Cancer Center replacing the CMV/LTR and UBiC promoters, to form Lenti-NFκB-Luc. Lentiviral NFκB vector were co-transfected with packaging constructs pRSVREV, pMDLg/pRRE, and the VSV-G expression plasmid pHCMVG, and lentivirus was produced in 293T cells by the calcium transfection method, as previously described in Qin, et al., Inhibiting HIV-1 infection in human T cells by lentiviral-mediated delivery of small interfering RNA against CCR5; Proc. Natl. Acad. Sci. U.S.A. 2003 Jan. 7; 100(1):183-8. […] Functional validation of NFκB reporter activity was conducted in vitro using TNF-α (20 ng/mL, Sigma, St. Louis, Mo.) as a positive control.
# BxPC-3 and Panc-1 cells stably expressing a Lenti-NFkB-luc reporter construct were treated with S100P, cromolyn, or the combination for 5 hours. D-luciferin (150 μg/mL) was added to the cells, and luciferase activity was measured using an IVIS bioluminescence system (Xenogen Co. Alameda, Calif.). Each experiment was conducted three times in triplicate.
# [4] = test system: BxPC-3 cells; test: BxPC-3 cell proliferation (MTS); assay type: cell-based; conditions: 48 hours; for basal cell proliferation, mean: 0 μM mean 1.2
# Procedure: BxPC-3 cells were plated at 1.0×10^3 cells/well and treated with 0 μM, 1 μM, 10 μM, and 100 μM of cromolyn, and cell proliferation was analyzed after 48 hours. Means and 95% confidence intervals of three independent experiments performed in triplicate are shown. *, P=0.002; t, P<0.001 versus control. Growth of Panc-1 and BxPC3 pancreatic adenocarcinoma cells was analyzed using MTS reagent (Promega, Madison, Wis.) according to the manufacturer's directions. Purified S100P (100 nM final concentration) with or without cromolyn (100 μM final concentration) was added to Panc-1 cells. Only cromolyn (0-100 μM) was added to BxPC-3 cells, which express endogenous S100P. For both cell models, 1.0×10^3 cells/well were plated in 96-well culture dishes. Cells were treated with S100P, PDGF, or cromolyn, or a combination, followed immediately by treatment with either S100P or PDGF. MTS (20 μL per well) was added to cells at various times, and the mixture was incubated for 1 hour at 37° C. Samples were then read at 490 nm (as O.D. units) on a uQuant-Microplate Spectrophotometer (Bio-Tek Services Inc., Richmond, Va.). The assay was performed three times in triplicate.
# [5] = S100P 100 nM + cromolyn 100 μM, 5 hours
compound,measurement,setting,value
"O=C(O)c1cc(=O)c2c(OCC(O)COc3cccc4oc(C(=O)O)cc(=O)c34)cccc2o1 [cromolyn, disodium 1,3-bis[(2′-carboxylatochromon-5′-yl)oxy]-2-hydroxypropane]",invasiveness of SW480 cells,[1],reduced the invasiveness
same,MPanc-96 cell viability,[2],inhibit
same,"NFκB promoter activity, difference versus 100 nM S100P alone",[3]; [5],7100 photons/sec
same,"NFκB promoter activity, mean",[3]; [5],7360 photons/sec
same,basal NFκB activity,[3]; cromolyn alone,no effect
same,"basal cell proliferation, difference versus 0 μM",[4]; cromolyn 10 μM,0.5 MTS units
same,"basal cell proliferation, mean",[4]; cromolyn 10 μM,0.7 MTS units
same,"basal cell proliferation, difference versus 0 μM",[4]; cromolyn 100 μM,0.6 MTS units
same,"basal cell proliferation, mean",[4]; cromolyn 100 μM,0.6 MTS units
